Reference: patent publication US9000022B2 (Exelixis Patent Company LLC, priority 2005, dated 2015)
pEC50: −log10 of the molar value.

System: LXRα and/or LXRβ
Test: Co-transfection assay (LXRE luciferase reporter, CV-1 cells)
Assay type: cell-based, human
Settings: for IC50 or EC50 (potency, activation or inhibition): tested as described in Example 33, IC50 or EC50 for LXRα and/or LXRβ, isoform not specified, read-out: activity (IC50 or EC50 for LXR)
Outline: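 CV-1 cells transiently co-transfected with full-length human LXRα or LXRβ plus RXRα, an LXRE×1-Tk-luciferase reporter and a β-galactosidase control. Compounds incubated 20 h at 37 °C (≤1% DMSO; screen at 10 μM final); luciferase read after lysis. EC50/IC50 from 8-point half-log curves (4 wells per point, ≥3 experiments); efficacy relative to a reference agonist high control and DMSO.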

Compound	IC50 or EC50 (potency, activation or inhibition) [nM]	pEC50 (read-out: activity (IC50 or EC50 for LXR), tested as described in Example 33, isoform not specified)
CCS(=O)(=O)c1cccc(-c2ccc(-n3cc(C(C)(C)O)nc3CCc3ccccc3Cl)cc2)c1 [Example 28, 2-(2-(2-chlorophenethyl)-1-(3′-(ethylsulfonyl)biphenyl-4-yl)-1H-imidazol-4-yl)propan-2-ol]	–	> 6.00
C/C(=N\O)c1cn(-c2ccc(-c3cccc(S(C)(=O)=O)c3)cc2C)c(-c2ccccc2C(C)C)n1 [Example 76, (E)-1-(2-(2-isopropylphenyl)-1-(3-methyl-3′-(methylsulfonyl)biphenyl-4-yl)-1H-imidazol-4-yl)ethanone oxime]	< 1000	–
CCN(CC)C(=O)c1cn(-c2ccc(-c3cccc(S(C)(=O)=O)c3)cc2C)c(-c2c(Cl)cccc2Cl)n1 [Example 86, 2-(2,6-dichlorophenyl)-N,N-diethyl-1-(3-methyl-3′-(methylsulfonyl)biphenyl-4-yl)-1H-imidazole-4-carboxamide]	< 1000	–
CC(C)(O)c1cn(-c2ccc(-c3ccc(S(C)(=O)=O)cc3)cc2)c(-c2ccccc2C(F)(F)F)n1 [Example 199, 2-{1-[4′-(methylsulfonyl)biphenyl-4-yl]-2-[2-(trifluoromethyl)phenyl]-1H-imidazol-4-yl}propan-2-ol]	1000 to 10000	–
CC(C)(O)c1cccc(-c2ccc(-n3cc(C(C)(C)O)nc3-c3ccccc3Cl)cc2)c1 [Example 409, 2-{2-(2-chlorophenyl)-1-[3′-(1-hydroxy-1-methylethyl)biphenyl-4-yl]-1H-imidazol-4-yl}propan-2-ol]	1000 to 10000	–
CON(C)C(=O)c1ccc(-c2ccc(-n3cc(C(C)(C)O)nc3-c3c(F)cccc3Cl)c(Cl)c2)cc1S(C)(=O)=O [Example 448, 3′-chloro-4′-(2-(2-chloro-6-fluorophenyl)-4-(2-hydroxypropan-2-yl)-1H-imidazol-1-yl)-N-methoxy-N-methyl-3-(methylsulfonyl)biphenyl-4-carboxamide]	> 10000	–
CC(C)(O)c1cn(-c2ccc(-c3ccc(CO)c(S(C)(=O)=O)c3)cc2Cl)c(-c2cccc(F)c2Cl)n1 [Example 153, 2-(2-(2-chloro-3-fluorophenyl)-1-(3-chloro-4′-(hydroxymethyl)-3′-(methylsulfonyl)biphenyl-4-yl)-1H-imidazol-4-yl)propan-2-ol]	< 1000	–
CC(C)c1cccc(-c2ccc(-n3cc(C(C)(C)O)nc3-c3ccccc3Cl)cc2)c1 [Example 388]	1000 to 10000	–
CC(C)(O)c1cn(-c2ccc(-c3cccc(N)c3)cc2)c(-c2ccccc2Cl)n1 [Example 405, 2-[1-(3′-aminobiphenyl-4-yl)-2-(2-chlorophenyl)-1H-imidazol-4-yl]propan-2-ol]	1000 to 10000	–
NS(=O)(=O)c1cccc(-c2ccc(-c3[nH]c(C(F)(F)F)nc3-c3ccccc3Cl)s2)c1 [Example 362, 3-{5-[4-(2-chlorophenyl)-2-(trifluoro-methyl)-1H-imidazol-5-yl]-2-thienyl}benzenesulfonamide]	< 1000	–
CC(C)(O)c1cn(-c2ccc(-c3ccc(C(N)=O)c(S(C)(=O)=O)c3)cc2Cl)c(-c2c(F)cccc2Cl)n1 [Example 453]	1000 to 10000	–
CS(=O)(=O)c1cccc(-c2ccc(-c3[nH]c(C(F)(F)F)nc3-c3ccccc3Cl)s2)c1 [Example 357, 4-(2-chlorophenyl)-5-{5-[3-(methylsulfonyl)phenyl]-2-thienyl}-2-(trifluoromethyl)-1H-imidazole]	< 1000	–
CC(=O)c1cn(-c2ccc(-c3cccc(S(C)(=O)=O)c3)cc2)c(-c2ccccc2F)n1 [Example 381, 1-{2-(2-fluorophenyl)-1-[3′-(methylsulfonyl)biphenyl-4-yl]-1H-imidazol-4-yl}ethanone]	1000 to 10000	–
CC(C)c1ccccc1-c1nc(C(C)(C)O)cn1-c1ccc(-c2cccc(S(C)(=O)=O)c2)cc1Cl [Example 161, 2-(1-(3-chloro-3′-(methyl-sulfonyl)biphenyl-4-yl)-2-(2-isopropylphenyl)-1H-imidazol-4-yl)propan-2-ol]	< 1000	–
Cc1cc(-c2ccc(CO)c(S(C)(=O)=O)c2)ccc1-n1cc(C(C)(C)O)nc1-c1c(C)cccc1Cl [Example 177]	< 1000	–

Continued, in another order:

IC50 or EC50 (potency, activation or inhibition) [nM]	Compound	pEC50 (read-out: activity (IC50 or EC50 for LXR), tested as described in Example 33, isoform not specified)
1000 to 10000	CCS(=O)(=O)c1cccc(-c2ccc(-n3cc(C(C)(C)O)nc3-c3c(F)cccc3F)cc2)c1 [Example 419, 2-{2-(2,6-difluorophenyl)-1-[3′-(ethylsulfonyl)biphenyl-4-yl]-1H-imidazol-4-yl}propan-2-ol]	–
< 1000	CCc1cc(-c2cccc(S(C)(=O)=O)c2)ccc1-n1cc(C(C)(C)O)nc1-c1ccccc1Cl [Example 170, 2-(2-(2-chlorophenyl)-1-(3-ethyl-3′-(methylsulfonyl)biphenyl-4-yl)-1H-imidazol-4-yl)propan-2-ol]	–
1000 to 10000	CC(C)(O)c1cn(-c2ccc(-c3cccc(S(C)(=O)=O)c3)c(F)c2)c(-c2ccccc2Cl)n1 [Example 387, 2-{2-(2-chlorophenyl)-1-[2-fluoro-3′-(methylsulfonyl)biphenyl-4-yl]-1H-imidazol-4-yl}propan-2-ol]	–
1000 to 10000	CCS(=O)(=O)c1cccc(-c2ccc(-c3nc(C(C)(C)O)cn3-c3c(Cl)cccc3Cl)s2)c1 [Example 45, 2-(1-(2,6-dichlorophenyl)-2-(5-(3-(ethylsulfonyl)phenyl)thiophen-2-yl)-1H-imidazol-4-yl)propan-2-ol]	–
< 1000	CC(C)(O)c1cn(-c2ccc(-c3cccc(S(C)(=O)=O)c3)cc2Cl)c(-c2c(F)cccc2Cl)n1 [Example 145, 2-(1-(3-chloro-3′-(methyl-sulfonyl)biphenyl-4-yl)-2-(2-chloro-6-fluorophenyl)-1H-imidazol-4-yl)propan-2-ol]	–
< 1000	CCS(=O)(=O)c1cccc(-c2ccc(-n3cc(C(C)(C)O)nc3-c3ccccc3C(F)(F)F)cc2)c1 [Example 200, 2-{1-[3′-(ethylsulfonyl)biphenyl-4-yl]-2-[2-(trifluoromethyl)phenyl]-1H-imidazol-4-yl}propan-2-ol]	–
< 1000	CCS(=O)(=O)c1cccc(-c2ccc(-n3cc(C(C)(C)O)nc3-c3c(Cl)cccc3Cl)c(Cl)c2)c1 [Example 150, 2-(1-(3-chloro-3′-(ethyl-sulfonyl)biphenyl-4-yl)-2-(2,6-dichlorophenyl)-1H-imidazol-4-yl)propan-2-ol]	–
1000 to 10000	CCS(=O)(=O)c1cccc(-c2ccc(-n3cc(C(C)(C)O)nc3-c3c(F)cccc3F)c(F)c2)c1 [Example 131, 2-(2-(2,6-difluorophenyl)-1-(3′-(ethylsulfonyl)-3-fluorobiphenyl-4-yl)-1H-imidazol-4-yl)propan-2-ol]	–
< 1000	CCS(=O)(=O)c1cccc(-c2ccc(-n3cc(C(=O)NCC(F)(F)F)nc3-c3c(Cl)cccc3Cl)c(C)c2)c1 [Example 104, 2-(2,6-dichlorophenyl)-1-(3′-(ethylsulfonyl)-3-methylbiphenyl-4-yl)-N-(2,2,2-trifluoroethyl)-1H-imidazole-4-carboxamide]	–
< 1000	CCS(=O)(=O)c1cccc(-c2ccc(-n3cc(C(C)(C)O)nc3-c3ccccc3C(C)C)cc2)c1 [Example 96, 2-(1-(3′-(ethylsulfonyl)biphenyl-4-yl)-2-(2-isopropylphenyl)-1H-imidazol-4-yl)propan-2-ol]	–
< 1000	CC(C)(O)c1cn(-c2ccc(-c3cccc(S(C)(=O)=O)c3)cc2Cl)c(-c2ccccc2C(F)(F)F)n1 [Example 135, 2-(1-(3-chloro-3′-(methyl-sulfonyl)biphenyl-4-yl)-2-(2-(trifluoromethyl)phenyl)-1H-imidazol-4-yl)propan-2-ol]	–
< 1000	CC(C)(O)c1cn(-c2ccc(-c3cccc(S(C)(=O)=O)c3)cc2F)c(-c2cccc(F)c2Cl)n1 [Example 123, 2-(2-(2-chloro-3-fluorophenyl)-1-(3-fluoro-3′-(methylsulfonyl)biphenyl-4-yl)-1H-imidazol-4-yl)propan-2-ol]	–
< 1000	CCS(=O)(=O)c1cccc(-c2ccc(-n3cc(C(C)(C)O)nc3-c3cccc(Cl)c3C)c(Cl)c2)c1 [Example 144, 2-(2-(3-chloro-2-methylphenyl)-1-(3-chloro-3′-(ethylsulfonyl)biphenyl-4-yl)-1H-imidazol-4-yl)propan-2-ol]	–
< 1000	CC(C)(O)c1cn(-c2ccc(-c3cc(S(C)(=O)=O)ccc3Cl)cc2)c(-c2c(Cl)cccc2Cl)n1 [Example 107, 2-(1-(2′-chloro-5′-(methyl-sulfonyl)biphenyl-4-yl)-2-(2,6-dichlorophenyl)-1H-imidazol-4-yl)propan-2-ol]	–
< 1000	Cc1cc(-c2cccc(S(C)(=O)=O)c2)ccc1-c1nc(C(C)(C)O)cn1-c1c(Cl)cccc1Cl [Example 197, 2-(1-(2,6-dichlorophenyl)-2-(3-methyl-3′-(methylsulfonyl)biphenyl-4-yl)-1H-imidazol-4-yl)propan-2-ol]	–
< 1000	CCS(=O)(=O)c1cccc(-c2ccc(-n3cc(C(C)(C)O)nc3-c3cccc(F)c3Cl)cc2)c1 [Example 95, 2-(2-(2-chloro-3-fluorophenyl)-1-(3′-(ethylsulfonyl)biphenyl-4-yl)-1H-imidazol-4-yl)propan-2-ol]	–
< 1000	CCS(=O)(=O)c1cccc(-c2ccc(-n3cc(C(C)(C)O)nc3-c3c(C)cccc3Cl)c(Cl)c2)c1 [Example 154, 2-(1-(3-chloro-3′-(ethyl-sulfonyl)biphenyl-4-yl)-2-(2-chloro-6-methylphenyl)-1H-imidazol-4-yl)propan-2-ol]	–
